Source: PMC5863496, “Mesobuthus Venom-Derived Antimicrobial Peptides Possess Intrinsic Multifunctionality and Differential Potential as Drugs” (Frontiers in Microbiology, 2018)
Ends that are not written are not given here.

Experiments:
Test in all cases: Inhibition-zone assay (CL)
Type in all cases: cell-based
Escherichia coli D. G2b = conditions: EC D. G2b, N.A. = no activity at 0.8 nmol peptide each well
Protocol: (§1) The antimicrobial activity of seven peptides, including MeuFSPL-1, MeuFSPL-2, Marmelittin, Melittin, Meucin-22, Marcin-22, and MeuTXKβ1, was evaluated by the inhibition-zone assay previously described in our studies (Hultmark, [1998]; Zhu et al., [2012a]; Zhu and Gao, [2014]). Temperatures used were 30 or 37°C for bacteria or 28°C for fungi. Media used were Luria-Bertani (LB) Broth (10 g tryptone, 5 g yeast extract, and 5 g NaCl in 1 l of water) or Nutrient Broth (10 g peptone, 5 g beef extract powder, and 5 g NaCl in 1 l of water) or GYM(Isp2) (4 g yeast extract, 10 g malt extract, 4 g glucose, 2 g CaCO3 in 1 l of water) for bacteria or Potato Dextrose Broth (200 g patato and 20 g glucose in 1 l of water) for fungi. To make plates, 10 μl of microbial culture (~2 × 10^6 bacterial cells or fungal spores/ml) were mixed in 6 ml of medium containing 0.8% agar and poured into Peri dishes of 9.0 cm diameter. Wells with a diameter of 2 mm were punched into the medium, filled with 2 μl of sample each well. In this assay, three different doses of peptides were applied to three independent wells in one standard bacterial plate. After incubation overnight, inhibition zones were measured and used to calculate lethal concentrations (CL), a concentration just sufficient to inhibit bacterial growth (Hultmark, [1998]; Gao et al., [2009]). CL values are calculated from a plot of d^2 against log n, where d is the diameter (in cm) and n is the amount of sample applied in the well (in nmol). The plot is linear and thus CL can be calculated from the slope (k) and the intercept (m) of this plot. The formula used here is CL = 2.93/ak10^m/k, where “a” is the thickness of the bacterial plate and “CL” is in μM.

[1] = tested on: Escherichia coli ATCC 25922; conditions: EC ATCC 25922, N.A. = no activity at 0.8 nmol peptide each well
Protocol: as §1

[2] = tested on: Micrococcus luteus CGMCC 1.0290; conditions: ML CGMCC 1.0290, N.A. = no activity at 0.8 nmol peptide each well
Protocol: as §1

[3] = tested on: penicillin-resistant Staphylococcus aureus P1383; conditions: PRSA P1383; inhibition-zone assay; N.A. = no activity at 0.8 nmol peptide each well
Protocol: as §1

[4] = tested on: Streptococcus sanguinis ATCC 1.2497; conditions: SSAN ATCC 1.2497, N.A. = no activity at 0.8 nmol peptide each well
Protocol: as §1

[5] = tested on: Streptococcus salivarius ATCC 1.2498; conditions: SSAL ATCC 1.2498, N.A. = no activity at 0.8 nmol peptide each well
Protocol: as §1

[6] = tested on: Escherichia coli CIP. J14b; conditions: EC CIP. J14b, N.A. = no activity at 0.8 nmol peptide each well
Protocol: as §1

[7] = tested on: penicillin-resistant Staphylococcus epidermidis P1389; conditions: PRSE P1389, N.A. = no activity at 0.8 nmol peptide each well
Protocol: as §1

[8] = tested on: Staphylococcus warneri ATCC 1.2824; conditions: SW ATCC 1.2824, N.A. = no activity at 0.8 nmol peptide each well
Protocol: as §1

[9] = tested on: Bacillus megaterium CGMCC 1.0459; conditions: BM CGMCC 1.0459, N.A. = no activity at 0.8 nmol peptide each well
Protocol: as §1

[10] = tested on: penicillin-sensitive Staphylococcus epidermidis P1111; conditions: PSSE P1111, N.A. = no activity at 0.8 nmol peptide each well
Protocol: as §1

[11] = tested on: Escherichia coli Am. J16c; conditions: EC Am. J16c, N.A. = no activity at 0.8 nmol peptide each well
Protocol: as §1

[12] = tested on: methicillin-resistant Staphylococcus aureus P1374; conditions: MRSA P1374, N.A. = no activity at 0.8 nmol peptide each well
Protocol: as §1

[13] = tested on: Pseudomonas aeruginosa 11082616; conditions: PA 11082616, N.A. = no activity at 0.8 nmol peptide each well
Protocol: as §1

[14] = tested on: Stenotrophomonas maltophilia CGMCC 1.1788; conditions: SMAL CGMCC 1.1788, N.A. = no activity at 0.8 nmol peptide each well
Protocol: as §1

[15] = tested on: Bacillus subtilis CGMCC 1.2428; conditions: BS CGMCC 1.2428, N.A. = no activity at 0.8 nmol peptide each well
Protocol: as §1

[16] = tested on: Staphylococcus aureus J685; conditions: SA J685, N.A. = no activity at 0.8 nmol peptide each well
Protocol: as §1

[17] = tested on: Staphylococcus aureus J700; conditions: SA J700, N.A. = no activity at 0.8 nmol peptide each well
Protocol: as §1

[18] = tested on: Staphylococcus aureus J698; conditions: SA J698, N.A. = no activity at 0.8 nmol peptide each well
Protocol: as §1

[19] = tested on: Streptococcus mutans ATCC 1.2499; conditions: SM ATCC 1.2499, N.A. = no activity at 0.8 nmol peptide each well
Protocol: as §1

[20] = tested on: methicillin-resistant Staphylococcus aureus P1386; conditions: MRSA P1386, N.A. = no activity at 0.8 nmol peptide each well
Protocol: as §1

[21] = tested on: methicillin-resistant coagulase-negative Staphylococcus P1369; conditions: MRCNS P1369, N.A. = no activity at 0.8 nmol peptide each well
Protocol: as §1

[22] = tested on: methicillin-sensitive Staphylococcus aureus CGMCC 1.89; conditions: MSSA CGMCC 1.89, N.A. = no activity at 0.8 nmol peptide each well
Protocol: as §1

[23] = tested on: Escherichia coli Am. J23a; conditions: EC Am. J23a, N.A. = no activity at 0.8 nmol peptide each well
Protocol: as §1

Substance | Lethal concentration (CL) (Escherichia coli D. G2b) [µM] | Lethal concentration (CL) [1] [µM] | Lethal concentration (CL) [2] [µM] | Lethal concentration (CL) [3] [µM] | Lethal concentration (CL) [4] [µM] | Lethal concentration (CL) [5] [µM] | Lethal concentration (CL) [6] [µM] | Lethal concentration (CL) [7] [µM] | Lethal concentration (CL) [8] [µM] | Lethal concentration (CL) [9] [µM] | Lethal concentration (CL) [10] [µM] | Lethal concentration (CL) [11] [µM] | Lethal concentration (CL) [12] [µM] | Lethal concentration (CL) [13] [µM] | Lethal concentration (CL) [14] [µM] | Lethal concentration (CL) [15] [µM] | Lethal concentration (CL) [16] [µM] | Lethal concentration (CL) [17] [µM] | Lethal concentration (CL) [18] [µM] | Lethal concentration (CL) [19] [µM] | further results
FFGHLFKLATKIIPSFFRRKNQ [MAC-22] | 12.95 | 10.69 | 2.58 | 2.11 | 9.12 | 4.22 | 12.03 | 3.72 | 4.45 | 1.35 | 1.35 | 15.15 | 1.35 | 19.08 | 6.78 | 2.11 | 2.39 | 2.39 | 2.39 | 4.22 | Lethal concentration (CL) [20]: 1.35 µM; Lethal concentration (CL) [21]: 1.35 µM; Lethal concentration (CL) [22]: 1.35 µM; Lethal concentration (CL) [23]: 12.70 µM
FFGHLFKLATKIIPSLFQRKKE [MUC-22] | 9.93 | 7.95 | 2.71 | 0.87 | 3.37 | 4.22 | 11.65 | 0.56 | 3.76 | 3.72 | 1.61 | 7.49 | 0.87 | 10.02 | 3.79 | 1.86 | 2.66 | 2.66 | 2.66 | 2.39 | Lethal concentration (CL) [20]: 1.88 µM; Lethal concentration (CL) [21]: 2.21 µM; Lethal concentration (CL) [22]: 1.35 µM; Lethal concentration (CL) [23]: 7.36 µM
FLFSLIPSAISGLISAFKGRRKRDLN-NH2 [MarMEL] | 6.24 | 6.41 | 1.85 | 2.35 | 4.70 | 4.70 | 8.41 | 3.12 | 0.18 | 2.86 | 4.24 | 7.75 | 2.60 | 8.41 | 4.14 | 3.13 | 8.41 | 10.86 | 6.24 | 2.85 | Lethal concentration (CL) [20]: 8.11 µM; Lethal concentration (CL) [21]: 3.01 µM; Lethal concentration (CL) [22]: 4.87 µM; Lethal concentration (CL) [23]: 4.69 µM
